{
  "source": "patent US8192962B2",
  "about": "“Processes for detecting toxic substances” (Daikin Industries, Ltd., priority 2001, dated 2012)",
  "test_system": "Transport facilitation protein genes",
  "assay": "DNA chip mRNA expression in yeast, transport facilitation protein genes (Table 5)",
  "format": "cell-based, Saccharomyces cerevisiae S288C",
  "experimental": "Yeast (Saccharomyces cerevisiae S288C (α SUC2mal mel gap2 CUP1)) were incubated at 25° C. on YPD medium (yeast extract 1%, polypepton 2%, glucose 2%). One of toxic chemical substances was added to the cells at logarithmic growth phase, and the cells were further incubated for two hours. Cells were cultured without any chemical substance in the same condition, and were used as control. Concentrations of the chemical substances were defined to inhibit the growth of the yeast but not lead to death.\nAfter completion of the incubation, the culture was centrifuged to collect the cells. To the cells, sodium acetate buffer (50 mM sodium acetate, 10 mM EDTA, 1% SDS) was added, and the mixture was shaken at 65° C. for five minutes, followed by returning to room temperature, and obtaining the supernatant, of which the procedures were repeated two times. To the supernatant, ½ amount of a solution of phenol/chloroform was added, and the mixture was centrifuged to give a supernatant, which was added with an equal amount of chloroform, and the mixture was centrifuged to give a supernatant. To the supernatant, an equal amount of isopropanol containing 0.3 M sodium acetate was added, and the mixture was allowed to stand at room temperature for 30 minutes, after which the mixture was centrifuged to give a sediment of the whole RNAs. Seventy % ethanol was added to the sediment, and the mixture was again centrifuged to give a sediment, which was then dried and dissolved in water. mRNA was isolated from the whole RNAs as followings. In view of the fact that a poly A chain is attached to the 3′ terminus of mRNA, a polynucleotide having a poly T structure which was immobilized on the surface of latex beads was used to trap the mRNA, and then the mRNA was washed and eluted with spine column (Oligotex-dT30<Super>mRNA Purification Kit, Takara). Reverse transcription of the mRNA was conducted with a reverse transcriptase (Super Script II Reverse Transcriptase; catalogue No. 18064-014, GibcoBRL) using fluorescence-labeled nucleotides to give cDNAs that were introduced with Cy3-dUTP or Cy5-dUTP during the reverse transcription.\nThe labeled cDNAs were dissolved in TE buffer (10mM Tris-HCl/1 mM EDTA, pH8.0), and the solution was dropped on the DNA chip containing the whole genes of yeast (DNA Chip Research Inc. Japan) so that the cDNAs were hybridized on the DNA chip at 65° C. for over 12 hours. The fluoresces intensity of the DNA chip was read with a scanner, and the ratio relative to the fluorescence intensity resulting from the absence of chemical substance was estimated as the following, which is shown in Tables 1 to 9: […]",
  "data": [
    {"smiles": "[Cl][Hg][Cl]", "note": "[(3), HgCl2]", "values": [
      {"measurement": "The level of expressed mRNA in the presence of chemical substance/The level of expressed mRNA in the absence of chemical substance", "setting": "yeast gene YBL030C", "result": 4.5},
      {"measurement": "The level of expressed mRNA in the presence of chemical substance/The level of expressed mRNA in the absence of chemical substance", "setting": "yeast gene YBL099W", "result": 3.1},
      {"measurement": "The level of expressed mRNA in the presence of chemical substance/The level of expressed mRNA in the absence of chemical substance", "setting": "yeast gene YBR052C", "result": 1.5},
      {"measurement": "The level of expressed mRNA in the presence of chemical substance/The level of expressed mRNA in the absence of chemical substance", "setting": "yeast gene YBR068C", "result": 1.9},
      {"measurement": "The level of expressed mRNA in the presence of chemical substance/The level of expressed mRNA in the absence of chemical substance", "setting": "yeast gene YBR127C", "result": 2.2},
      {"measurement": "The level of expressed mRNA in the presence of chemical substance/The level of expressed mRNA in the absence of chemical substance", "setting": "yeast gene YBR132C", "result": 2.4},
      {"measurement": "The level of expressed mRNA in the presence of chemical substance/The level of expressed mRNA in the absence of chemical substance", "setting": "yeast gene YBR207W", "result": 0.8},
      {"measurement": "The level of expressed mRNA in the presence of chemical substance/The level of expressed mRNA in the absence of chemical substance", "setting": "yeast gene YBR293W", "result": 1.0},
      {"measurement": "The level of expressed mRNA in the presence of chemical substance/The level of expressed mRNA in the absence of chemical substance", "setting": "yeast gene YBR294W", "result": 0.9},
      {"measurement": "The level of expressed mRNA in the presence of chemical substance/The level of expressed mRNA in the absence of chemical substance", "setting": "yeast gene YBR295W", "result": 3.3},
      {"measurement": "The level of expressed mRNA in the presence of chemical substance/The level of expressed mRNA in the absence of chemical substance", "setting": "yeast gene YBR298C", "result": 1.6},
      {"measurement": "The level of expressed mRNA in the presence of chemical substance/The level of expressed mRNA in the absence of chemical substance", "setting": "yeast gene YCL025C", "result": 2.5},
      {"measurement": "The level of expressed mRNA in the presence of chemical substance/The level of expressed mRNA in the absence of chemical substance", "setting": "yeast gene YCL038C", "result": 1.4},
      {"measurement": "The level of expressed mRNA in the presence of chemical substance/The level of expressed mRNA in the absence of chemical substance", "setting": "yeast gene YCR024C-A", "result": 3.2},
      {"measurement": "The level of expressed mRNA in the presence of chemical substance/The level of expressed mRNA in the absence of chemical substance", "setting": "yeast gene YCR037C", "result": 0.8},
      {"measurement": "The level of expressed mRNA in the presence of chemical substance/The level of expressed mRNA in the absence of chemical substance", "setting": "yeast gene YCR098C", "result": 1.7},
      {"measurement": "The level of expressed mRNA in the presence of chemical substance/The level of expressed mRNA in the absence of chemical substance", "setting": "yeast gene YDL128W", "result": 2.1},
      {"measurement": "The level of expressed mRNA in the presence of chemical substance/The level of expressed mRNA in the absence of chemical substance", "setting": "yeast gene YDL198C", "result": 2.1},
      {"measurement": "The level of expressed mRNA in the presence of chemical substance/The level of expressed mRNA in the absence of chemical substance", "setting": "yeast gene YDL210W", "result": 2.7},
      {"measurement": "The level of expressed mRNA in the presence of chemical substance/The level of expressed mRNA in the absence of chemical substance", "setting": "yeast gene YDL245C", "result": 1.6},
      {"measurement": "The level of expressed mRNA in the presence of chemical substance/The level of expressed mRNA in the absence of chemical substance", "setting": "yeast gene YDR038C", "result": 3.1},
      {"measurement": "The level of expressed mRNA in the presence of chemical substance/The level of expressed mRNA in the absence of chemical substance", "setting": "yeast gene YDR039C", "result": 3.2},
      {"measurement": "The level of expressed mRNA in the presence of chemical substance/The level of expressed mRNA in the absence of chemical substance", "setting": "yeast gene YDR086C", "result": 1.2},
      {"measurement": "The level of expressed mRNA in the presence of chemical substance/The level of expressed mRNA in the absence of chemical substance", "setting": "yeast gene YDR270W", "result": 1.4},
      {"measurement": "The level of expressed mRNA in the presence of chemical substance/The level of expressed mRNA in the absence of chemical substance", "setting": "yeast gene YDR298C", "result": 2.6},
      {"measurement": "The level of expressed mRNA in the presence of chemical substance/The level of expressed mRNA in the absence of chemical substance", "setting": "yeast gene YDR342C", "result": 12.2},
      {"measurement": "The level of expressed mRNA in the presence of chemical substance/The level of expressed mRNA in the absence of chemical substance", "setting": "yeast gene YDR343C", "result": 20.6},
      {"measurement": "The level of expressed mRNA in the presence of chemical substance/The level of expressed mRNA in the absence of chemical substance", "setting": "yeast gene YDR345C", "result": 5.6},
      {"measurement": "The level of expressed mRNA in the presence of chemical substance/The level of expressed mRNA in the absence of chemical substance", "setting": "yeast gene YDR387C", "result": 1.2},
      {"measurement": "The level of expressed mRNA in the presence of chemical substance/The level of expressed mRNA in the absence of chemical substance", "setting": "yeast gene YDR497C", "result": 0.6},
      {"measurement": "The level of expressed mRNA in the presence of chemical substance/The level of expressed mRNA in the absence of chemical substance", "setting": "yeast gene YEL027W", "result": 3.4},
      {"measurement": "The level of expressed mRNA in the presence of chemical substance/The level of expressed mRNA in the absence of chemical substance", "setting": "yeast gene YEL063C", "result": 2.4},
      {"measurement": "The level of expressed mRNA in the presence of chemical substance/The level of expressed mRNA in the absence of chemical substance", "setting": "yeast gene YEL065W", "result": 1.2},
      {"measurement": "The level of expressed mRNA in the presence of chemical substance/The level of expressed mRNA in the absence of chemical substance", "setting": "yeast gene YER053C", "result": 1.9},
      {"measurement": "The level of expressed mRNA in the presence of chemical substance/The level of expressed mRNA in the absence of chemical substance", "setting": "yeast gene YFL011W", "result": 3.7},
      {"measurement": "The level of expressed mRNA in the presence of chemical substance/The level of expressed mRNA in the absence of chemical substance", "setting": "yeast gene YFL041W", "result": 1.4},
      {"measurement": "The level of expressed mRNA in the presence of chemical substance/The level of expressed mRNA in the absence of chemical substance", "setting": "yeast gene YFL050C", "result": 1.1},
      {"measurement": "The level of expressed mRNA in the presence of chemical substance/The level of expressed mRNA in the absence of chemical substance", "setting": "yeast gene YFL054C", "result": 1.4},
      {"measurement": "The level of expressed mRNA in the presence of chemical substance/The level of expressed mRNA in the absence of chemical substance", "setting": "yeast gene YGL006W", "result": 1.3},
      {"measurement": "The level of expressed mRNA in the presence of chemical substance/The level of expressed mRNA in the absence of chemical substance", "setting": "yeast gene YGL008C", "result": 3.1},
      {"measurement": "The level of expressed mRNA in the presence of chemical substance/The level of expressed mRNA in the absence of chemical substance", "setting": "yeast gene YGL104C", "result": 2.1},
      {"measurement": "The level of expressed mRNA in the presence of chemical substance/The level of expressed mRNA in the absence of chemical substance", "setting": "yeast gene YGL167C", "result": 1.6},
      {"measurement": "The level of expressed mRNA in the presence of chemical substance/The level of expressed mRNA in the absence of chemical substance", "setting": "yeast gene YGL255W", "result": 0.9},
      {"measurement": "The level of expressed mRNA in the presence of chemical substance/The level of expressed mRNA in the absence of chemical substance", "setting": "yeast gene YGR055W", "result": 12.0},
      {"measurement": "The level of expressed mRNA in the presence of chemical substance/The level of expressed mRNA in the absence of chemical substance", "setting": "yeast gene YGR065C", "result": 2.6},
      {"measurement": "The level of expressed mRNA in the presence of chemical substance/The level of expressed mRNA in the absence of chemical substance", "setting": "yeast gene YGR082W", "result": 2.2},
      {"measurement": "The level of expressed mRNA in the presence of chemical substance/The level of expressed mRNA in the absence of chemical substance", "setting": "yeast gene YGR096W", "result": 1.1},
      {"measurement": "The level of expressed mRNA in the presence of chemical substance/The level of expressed mRNA in the absence of chemical substance", "setting": "yeast gene YGR138C", "result": 1.0},
      {"measurement": "The level of expressed mRNA in the presence of chemical substance/The level of expressed mRNA in the absence of chemical substance", "setting": "yeast gene YGR191W", "result": 1.6},
      {"measurement": "The level of expressed mRNA in the presence of chemical substance/The level of expressed mRNA in the absence of chemical substance", "setting": "yeast gene YGR197C", "result": 2.5}
    ]}
  ]
}
